In patent US8772448B2, “Peptides immunoreactive with autoantibodies from patients suffering from rheumatoid arthritis” (Stichting Voor de Technische Wetenschappen, priority 1996, dated 2014):
Where no end group is shown, it is not given here. [ ]: non-standard residue; d: D form. Cit = NC(=O)NCCC[C@H](N)C(=O)O

Columns and labels:
[1] = system: autoimmune antibodies in sera from patients suffering from rheumatoid arthritis; experiment: ELISA of coupled peptides with RA sera; assay type: binding, human; settings: n = 134 RA sera, positive = OD450 of 0.2 after deduction of blank; for RA sera: number of positive sera: sera diluted 200 times
Description: (§1) Detection by Means of ELISA
Via an N-oxysuccinimide surface the peptides were covalently coupled to the wells of 96-well microtitre plates (Costar amide binding plates) in an amount of 1 ? g/well. Coupling took place for 16 hours at 4EC and pH 9.0. The plates were blocked for 1 hour with 2% bovine serum albumin. The sera were diluted 200 times in a diluent (0.3% BSA, 350 mM NaCl, 10 mM Tris-HCl pH 7.6, 1% vol./vol. Triton X-100, 0.5% w./vol. Na-deoxycholate, 0.1% SDS) supplemented with 10% normal rabbit serum, and incubated for one hour at room temperature. After washing the plates (3 times with PBS containing 0.05 by vol. of Tween® 20), 100 ? l of antihuman IgG conjugated with peroxidase (Dako P214), 1000 times diluted in dilution buffer, was added to the wells. After incubation for 1 hour at room temperature, the plates were washed 3 times with PBS/Tween®, and bound antibodies were detected with tetramethyl benzidine as a substrate. After 10 minutes the reaction was stopped by adding 100 ? l of 2 M sulphuric acid per well. Readout occurred at 450 nm. Sera having an OD450 of 0.2, after deduction of the blank for the respective serum (a well without a coupled peptide), were considered to be positive. […]

[2] = system: antibodies in control sera from patients suffering from rheumatic diseases other than RA; experiment: ELISA of coupled peptides with control sera; assay type: binding, human; settings: for control sera (%) positive / control sera: number of positive sera: n = 154, rheumatic diseases other than RA
Description: as §1
(§2) Via an N-oxysuccinimide surface the peptides were covalently coupled to the wells of 96-well microtitre plates (Costar amide binding plates) in an amount of 1 ? g/well. Coupling took place for 16 hours at 4EC and pH 9.0. The plates were blocked for 1 hour with 2% bovine serum albumin. The sera were diluted 200 times in a diluent (0.3% BSA, 350 mM NaCl, 10 mM Tris-HCl pH 7.6, 1% vol./vol. Triton X-100, 0.5% w./vol. Na-deoxycholate, 0.1% SDS) supplemented with 10% normal rabbit serum, and incubated for one hour at room temperature. After washing the plates (3 times with PBS containing 0.05 by vol. of Tween® 20), 100 ? l of antihuman IgG conjugated with peroxidase (Dako P214), 1000 times diluted in dilution buffer, was added to the wells. After incubation for 1 hour at room temperature, the plates were washed 3 times with PBS/Tween®, and bound antibodies were detected with tetramethyl benzidine as a substrate. After 10 minutes the reaction was stopped by adding 100 ? l of 2 M sulphuric acid per well. Readout occurred at 450 nm. Sera having an OD450 of 0.2, after deduction of the blank for the respective serum (a well without a coupled peptide), were considered to be positive.
In total, 288 sera from patients suffering from rheumatoid diseases were used, 132 of which were from patients suffering from rheumatoid arthritis.

[3] = system: antibodies in SLE (systemic lupus erythematosus) sera; experiment: ELISA of coupled peptides with SLE sera; assay type: binding, human; settings: n = 50
Description: as §1, §2

[4] = system: antibodies in SSC (systemic scleroderma) sera; experiment: ELISA of coupled peptides with SSC sera; assay type: binding, human; settings: n = 50
Description: as §1, §2

[5] = system: antibodies in pSS (primary Sjögren's syndrome) sera; experiment: ELISA of coupled peptides with pSS sera; assay type: binding, human; settings: n = 50
Description: as §1, §2

[6] = system: antibodies in PM/DM (polymyositis/dermatomyositis) sera; experiment: ELISA of coupled peptides with PM/DM sera; assay type: binding, human; settings: n = 50
Description: as §1, §2

[7] = system: antibodies in sera from patients suffering from various infectious diseases; experiment: ELISA with sera from patients suffering from various infectious diseases; assay type: binding, human; settings: 308 tested sera
[8] = system: recombinant monoclonal antibody described by applicants; experiment: Reactivity of peptides with the recombinant monoclonal antibody; assay type: binding

Row | Sequence | RA sera (%) positive [1] [%] | RA sera (%) positive ([1]; listed as Formula II) | RA sera: number of positive sera [1] | control sera (%) positive [2] [%] | control sera: number of positive sera [2] | percentage of false positives ([2]; other autoimmune diseases and healthy individuals) | SLE (%) positive [3] [%] | SLE: number of positive sera [3] | SSC: number of positive sera [4] | pSS: number of positive sera [5] | PM/DM: number of positive sera [6] | infectious disease sera: number positive [7] | specificity in respect of infectious disease sera [7] [%] | reactivity with the recombinant monoclonal antibody [8] | pSS (%) positive [5] [%] | PM/DM (%) positive [6] [%]
1 | SHQESTXGRSRGRSGRSGS (SHQEST[Cit]GRSRGRSGRSGS-NH2; N-terminus assumed; SMILES C[C@@H](O)[C@H](NC(=O)[C@H](CO)NC(=O)[C@H](CCC(=O)O)NC(=O)[C@H](CCC(N)=O)NC(=O)[C@H](Cc1c[nH]cn1)NC(=O)[C@@H](N)CO)C(=O)N[C@@H](CCCNC(N)=O)C(=O)NCC(=O)N[C@@H](CCCNC(=N)N)C(=O)N[C@@H](CO)C(=O)N[C@@H](CCCNC(=N)N)C(=O)NCC(=O)N[C@@H](CCCNC(=N)N)C(=O)N[C@@H](CO)C(=O)NCC(=O)N[C@@H](CCCNC(=N)N)C(=O)N[C@@H](CO)C(=O)NCC(=O)N[C@@H](CO)C(N)=O) [cfc1] | 36 | about 36% | 49 | 0.6 | 1 | less than 2% | 2 | 1 | 0 | 0 | 0 | 9 | 97 | reactive | – | –
2 | SHQESTXGRSXGRSGRSGS (SHQEST[Cit]GRS[Cit]GRSGRSGS-NH2; N-terminus assumed; SMILES C[C@@H](O)[C@H](NC(=O)[C@H](CO)NC(=O)[C@H](CCC(=O)O)NC(=O)[C@H](CCC(N)=O)NC(=O)[C@H](Cc1c[nH]cn1)NC(=O)[C@@H](N)CO)C(=O)N[C@@H](CCCNC(N)=O)C(=O)NCC(=O)N[C@@H](CCCNC(=N)N)C(=O)N[C@@H](CO)C(=O)N[C@@H](CCCNC(N)=O)C(=O)NCC(=O)N[C@@H](CCCNC(=N)N)C(=O)N[C@@H](CO)C(=O)NCC(=O)N[C@@H](CCCNC(=N)N)C(=O)N[C@@H](CO)C(=O)NCC(=O)N[C@@H](CO)C(N)=O) [cfc7] | 45 | – | 60 | 0.6 | 1 | – | – | 0 | 0 | 1 | 1 | – | – | – | 2 | 2
3 | SHQESTXGXSRGRSGRSGS (SHQEST[Cit]G[Cit]SRGRSGRSGS-NH2; N-terminus assumed; SMILES C[C@@H](O)[C@H](NC(=O)[C@H](CO)NC(=O)[C@H](CCC(=O)O)NC(=O)[C@H](CCC(N)=O)NC(=O)[C@H](Cc1c[nH]cn1)NC(=O)[C@@H](N)CO)C(=O)N[C@@H](CCCNC(N)=O)C(=O)NCC(=O)N[C@@H](CCCNC(N)=O)C(=O)N[C@@H](CO)C(=O)N[C@@H](CCCNC(=N)N)C(=O)NCC(=O)N[C@@H](CCCNC(=N)N)C(=O)N[C@@H](CO)C(=O)NCC(=O)N[C@@H](CCCNC(=N)N)C(=O)N[C@@H](CO)C(=O)NCC(=O)N[C@@H](CO)C(N)=O) [cfc6] | 48 | – | 65 | 0.6 | 1 | – | – | 0 | 0 | 2 | 1 | – | – | – | 4 | 2
